Some test systems named below: A498; ACHN; COLO 205; EKVX; HCT-15; HOP-92; Hs-578T; IGROV-1; M14; MDA-MB-231; MOLT-4; NCI-H226; OVCAR-5; RPMI-8226; RXF 393; SF-295; SK-OV-3; SR; T47D; TK-10.
Test in all cases: growth of human tumour cells (NCI), 48 h

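Step 1: Grow cells in 96-well plates. Step 2: Expose to compound for 48 hours at 5 concentrations. Step 3: Interpolate endpoints linearly; if unreached, use highest concentration. The concentration for 50% growth inhibition is given as GI50.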 Active and inactive are the calls of the source. Cut-off read from the data, not from the text of the source: active = GI50 up to about 1.1 µM and inactive = higher.

For the compound `CCCCI(O)OS(=O)(=O)c1ccc(C)cc1`, the GI50 is > 100 µM (inactive) in the test with A498; > 100 µM (inactive) with ACHN; > 100 µM (inactive) with COLO 205; 38 µM (inactive) in the test with EKVX; > 100 µM with HCT-15; > 100 µM (inactive) in the test with HOP-92. Besides, the GI50 in the test with Hs-578T is > 100 µM (inactive); in the test with IGROV-1, 28.2 µM (inactive); in the test on M14, > 100 µM (inactive); in the test on MDA-MB-231 it was > 100 µM (inactive); in the test on MOLT-4 it was > 100 µM (inactive); in the test with NCI-H226, > 100 µM (inactive). The GI50 in the test on OVCAR-5 is > 100 µM (inactive); with RPMI-8226, 50.6 µM (inactive); with RXF 393, > 100 µM (inactive); with SF-295 it was > 100 µM (inactive); with SK-OV-3 it was > 100 µM (inactive); with SR it was 55.3 µM (inactive). Besides, the GI50 in the test on T47D and with TK-10 was > 100 µM (inactive) throughout.
Regarding `CN(C)CCNc1ccc2nnn3c4ccc(Cl)cc4c(=O)c1c23`, the GI50 in the test on A498 is 2.8 µM (inactive); in the test on ACHN it was 1.55 µM (inactive); in the test with COLO 205, 1.18 µM (inactive); in the test with EKVX, 4.45 µM (inactive); in the test on HCT-15 it was 2.16 µM; with HOP-92, 3.69 µM (inactive). The GI50 was 3.3 µM (inactive) in the test on Hs-578T; 3.65 µM (inactive) in the test on IGROV-1; 4.94 µM (inactive) in the test with M14; 11.1 µM (inactive) with MDA-MB-231; 0.624 µM (active) in the test on MOLT-4; 2.06 µM (inactive) with NCI-H226. Moreover, the GI50 was 4.14 µM (inactive) in the test on OVCAR-5; 2.92 µM (inactive) with RPMI-8226; 3.15 µM (inactive) in the test on RXF 393; 2.85 µM (inactive) with SF-295; 9.89 µM (inactive) with SK-OV-3; 1.33 µM (inactive) in the test with SR. For the same compound, the GI50 in the test with T47D is 14.4 µM (inactive); in the test with TK-10, 5 µM (inactive).

The record behind these values is ChEMBL document CHEMBL1201862, “PubChem BioAssay data set” (2004).
